Entries after “also recorded” stand apart in the source; their conditions may differ.
Columns and labels:
[1] = tested on: Human epidermal keratinocyte cells (HaCaT); assay: CyQUANT assay, proliferation of HaCaT cells; type: cell-based; conditions: after 48 h and 72 h of cultivation, versus control without DMG, FIG. 2
Experimental: (§1) 1. As part of an in vitro study, the effect of Na-dimethylglycinate was examined in a pH range from […] in a cell culture model with human horn-forming keratinocyte cells. For this purpose, HaCaT cells were cultured for 1, 3, 5, and 7 days in DMEM medium (including fetal calf serum and an antibiotic-antimycotic mix) and, among other things, the viability, proliferation and migration of the cells were determined using suitable measurement methods, and the expression of the growth factors relevant for cell growth was measured.
A so-called CyQUANT assay was carried out to measure the proliferation. In this fluorescence-based assay, the fluorescent dye used binds to DNA (deoxyribonucleic acid), with the content of cellular DNA being a direct measure of the number of cells in a sample.
Human epidermal keratinocyte cells (HaCaT) were seeded in a 96-well plate at a cell density of 5,000 cells/well and cultured in medium (DMEM with 10% FBS, 1% penicillin-streptomycin, 0.5% fungizone). The next day and after a further 24 h as well as 48 h and 72 h of cultivation at 37° C. and 5% by volume CO2, the cell culture medium without (control) or with the active ingredient concentrations already present was changed. […]
Cell proliferation was determined using the CyQUANT assay. The fluorescence was measured in triplicate and normalized to the control at 24 hours. […]

VEGF = assay: Gene expression of VEGF by qRT-PCR in HaCaT cells; type: cell-based, human; conditions: after 24 hours of cultivation, normalized to GAPDH, versus control without DMG, FIG. 4
Experimental: VEGF (Vascular Endothelial Growth Factor) promotes the growth and formation of new blood and lymphatic vessels. Gene expression was measured using a standard method known as quantitative real-time PCR (qRT-PCR).
Human epidermal keratinocyte cells (HaCaT) were seeded in a 6-well plate at a cell density of 140,000 cells/well and cultured in medium (DMEM with 10% FBS, 1% penicillin-streptomycin, 0.5% fungizone) at 37° C. and 5% by volume CO2. The next day, the cell culture medium without (control) or with the active substance concentrations already present in each case was changed, and the cells were harvested after 24 h. Gene expression was measured using qRT-PCR based on studies previously published in B. V. Diaz, M.-C. Lenoir, A. Ladoux, C. Frelin, M. Demarchez, S. Michel, Journal of Biological Chemistry 2000, 275, 642-650.
The relative gene expression determined by qRT-PCR (triple determination, normalized to the respective gene expression of a constitutively expressed gene; GAPDH—glyceraldehyde-3-phosphate dehydrogenase) of VEGF is shown. Shown is the mean value with standard deviation.

[2] = tested on: Human epidermal keratinocyte cells (HaCaT); assay: MTT assay, cell viability of HaCaT cells; type: cell-based; conditions: after 48 h and 72 h of cultivation, versus control without DMG, FIG. 1
Experimental: as §1
For this measurement, a so-called MTT assay was used to determine cellular metabolic activity as an indicator of cell viability and cytotoxicity. This colorimetric assay is based on the reduction of a yellow tetrazolium salt (3-(4,5-dimethylthiazol-2-yl)-2,5-diphenyltetrazolium bromide or MTT) to purple formazan crystals by metabolically active cells.
Human epidermal keratinocyte cells (HaCaT) were seeded in a 96-well plate at a cell density of 5,000 cells/well and cultured in medium (DMEM with 10% FBS, 1% penicillin-streptomycin, 0.5% fungizone). […]
Cell viability was determined using the MTT assay. The absorption was measured in quadruplicate and normalized to the control at 24 hours. […]

HaCaT cells = assay: Wound healing assay, cell migration; type: cell-based, human; conditions: images after 16 h, 20 h and 24 h, different DMG concentrations, compared to controls without DMG; FIG. 3
Experimental: as §1
A so-called wound healing assay was carried out to measure migration, based on previously published studies in T. Kawabata, T. Otsuka, K. Fujita, G. Sakai, R. Matsushima-Nishiwaki, O. Kozawa, H. Tokuda, International Journal of Molecular Medicine 2018, 42, 3149-3156. The principle is based on measuring the migration of cells to a cultivation surface that has not yet been colonized over time. […]
The wound was created at time 0 h and images were taken after 16 h, 20 h and 24 h of cultivation. Based on the image recordings, the cultivation surface, which was not yet colonized with cells, was determined using the ImageJ software. The measured values are normalized to the point in time 0 h (maximum size of the wound) and given in %.

CN(C)CC(=O)[O-].[Na+] [DMG, sodium dimethylglycinate]
cell proliferation (CyQUANT assay, fluorescence normalized to the control at 24 hours) [1]: clear increase | relative gene expression of VEGF (VEGF): significant increase; also recorded: significantly increased | cell viability (MTT assay, absorption normalized to the control at 24 hours) [2]: clear increase | migration or wound closure (HaCaT cells): significantly faster
